{
  "source": "patent US7592025B2",
  "about": "“Vehicles for oral care with magnolia bark extract” (GIC Innovations Company, priority 2005, dated 2009)",
  "key": {"[1]": {"tested_on": "bacteria from freshly-collected stimulated whole saliva (plaque biofilm)", "assay": "Mixed culture saliva biofilm on saliva-coated hydroxyapatite discs, timed exposure to actives", "type": "cell-based", "details": "for pH (of medium): second series (Table 7)", "description": "Although useful to show the comparative effect of Magnolia Bark Extract on biofilm formation and MIC growth, the foregoing test procedure may not effectively mimic the in vivo exposure of an oral care product to a developing plaque biofilm. In an in vivo situation, the active could be exposed to the plaque for a defined period of time at a set frequency (for example, for 5 minutes, three times a day). Therefore, a series of comparative experiments were conducted to mimic the in vivo use of potential active ingredients. To perform the tests the saliva compositions listed below in Tables 2 and 3 were prepared.\nA mixed culture system that utilizes the bacteria from freshly-collected stimulated whole saliva was used. Saliva cell pellets were used to inoculate saliva-coated hydroxyapatite (S-HA) discs. The discs were placed in 24-well cell culture plates and incubated for up to 3 days. Biofilms were exposed to actives on days 2 and 3 (starting at 18 hours), and quantified on day 4. The number of bacteria was determined by spectrophotometric absorbance or optical density (OD) at 600 nm. The five phases of the experiment were: pellicle formation; bacterial attachment; biofilm growth; exposure to actives; and bacterial enumeration.\nTo form the pellicles, HA Discs were ultrasonically washed in deionized water and air-dried, then autoclaved. The discs were placed in a 24-well plate with 1 ml 50% sterile saliva (1 part sterile whole saliva: 1 part saliva buffer, filter sterilize after preparation) for 2 hours on slow agitation at room temperature. […]\nAfter overnight incubation (day 2), discs were exposed to controls and actives. […] On day 4 the discs were removed from the medium, the medium pH was measured to obtain an indication of metabolic activity, and the discs were placed into tubes with 2.5 ml PBS, vortexed for 20 sec, and then placed into the ultrasonic bath for another 20 sec. The suspension was transferred into cuvettes and the bacterial cell density determined by OD measurements at 600 nm. […]"}, "incubated saliva": {"tested_on": "incubated saliva", "assay": "MIC of surface active agents and emulsifiers by two-fold serial dilution in nutrient broth", "type": "cell-based", "details": "for MIC (ppm): incubated saliva, 24 hours at 37° C.; for germ-kill efficacy (in words): assessment of Table 9 results", "description": "(§1) To evaluate the germ-kill efficacy and synergist effect when two or more germ-kill actives are combined, testing was performed to determine the ratio of MBE to surface active agent. The germ-kill active and/or surface active agent were dissolved in ethanol or sterile water to give an initial concentration 0.1% to 1%. The solution was diluted with a nutrient broth to give an initial concentration of 0.05% to 0.5%, which was then serially diluted two-fold so that each subsequent dilution contained 50% of the compound concentration of the previous dilution while maintaining a constant level of nutrients for each dilution. These dilutions were inoculated with representative oral microorganisms, or incubated saliva, and incubated for 24 hours at 37° C. For each surface active agent, the lowest dilution that was not turbid was registered as the MIC. The MBC was determined by transferring 10 microliter of liquid from non-turbid tubes to fresh growth media and incubated for 48 hours."}, "S. mutans": {"tested_on": "S. mutans", "assay": "MIC and fractional inhibitory index (FIC) of combinations by two-fold serial dilution", "type": "cell-based, Streptococcus mutans", "details": "24 hours at 37° C., ratio as in label", "description": "as §1\n(1) where an FIC value of less than 1.0 is synergistic, an FIC between 1.0 and 2.0 is additive, and an FIC greater than 2.0 is antagonistic."}},
  "data": [
    {"compound": "[H]/N=C(\\N/C(=N/[H])NCCCCCCNC(=N)NC(=N)Nc1ccc(Cl)cc1)Nc1ccc(Cl)cc1", "note": "[CHX, Chlorhexidine]", "values": [
      {"measurement": "pH (of medium, indication of metabolic activity)", "setting": "[1]; CHX 0.12%, exposure one minute two times a day, day 4", "value": 8.8},
      {"measurement": "pH (of medium)", "setting": "[1]; CHX 0.1% (1000 ppm)", "value": 8.8}
    ]},
    {"compound": "N=C(NCCCCCCNC(=N)NC(=N)Nc1ccc(Cl)cc1)NC(=N)Nc1ccc(Cl)cc1.O=C(O)[C@H](O)[C@@H](O)[C@H](O)[C@H](O)CO.O=C(O)[C@H](O)[C@@H](O)[C@H](O)[C@H](O)CO", "note": "[Chlorhexidine gluconate, reference compound]", "values": [
      {"measurement": "MIC (ppm)", "setting": "incubated saliva", "value": 2, "unit": "ppm"},
      {"measurement": "MIC/ppm", "setting": "S. mutans", "value": 2, "unit": "ppm"}
    ]},
    {"compound": "CCCCCCCCCCCCOS(=O)(=O)[O-].[Na+]", "note": "[SLS, Sodium Lauryl Sulfate]", "values": [
      {"measurement": "germ-kill efficacy (in words)", "setting": "incubated saliva", "value": "good"},
      {"measurement": "pH (of medium)", "setting": "[1]; SLS 1000 ppm", "value": 5.7}
    ]},
    {"compound": "CCCCCCCCCCCC(=O)OCCOCCOCCOCCOCCOCCOCCOCCOCCOCCOCCOCCOCCOCCOCCOCCOCCOCCOCCOCCOCC(OCCOCCOCCOCCOCCOCCOCCOCCOCCOCCOCCOCCOCCOCCOCCOCCOCCOCCOCCOCCO)C1OCC(OCCOCCOCCOCCOCCOCCOCCOCCOCCOCCOCCOCCOCCOCCOCCOCCOCCOCCOCCOCCO)C1OCCOCCOCCOCCOCCOCCOCCOCCOCCOCCOCCOCCOCCOCCOCCOCCOCCOCCOCCOCCO", "note": "(stereo not shown) [Tween 20, Polysorbate 20]", "values": [
      {"measurement": "germ-kill efficacy (in words)", "setting": "incubated saliva", "value": "weak or non"}
    ]},
    {"compound": "Cocamidopropyl Betaine", "values": [
      {"measurement": "germ-kill efficacy (in words)", "setting": "incubated saliva", "value": "good"}
    ]},
    {"compound": "Sodium Brasslate", "values": [
      {"measurement": "germ-kill efficacy (in words)", "setting": "incubated saliva", "value": "moderate"},
      {"measurement": "MIC (ppm)", "setting": "incubated saliva", "value": 500, "unit": "ppm"}
    ]},
    {"compound": "Sodium Stearoyl Lactylate", "values": [
      {"measurement": "germ-kill efficacy (in words)", "setting": "incubated saliva", "value": "weak or non"},
      {"measurement": "MIC (ppm)", "setting": "incubated saliva", "value": ">3000", "unit": "ppm"}
    ]},
    {"compound": "Sucrose Distearate", "values": [
      {"measurement": "germ-kill efficacy (in words)", "setting": "incubated saliva", "value": "weak or non"},
      {"measurement": "MIC (ppm)", "setting": "incubated saliva", "value": ">500", "unit": "ppm"}
    ]},
    {"compound": "Sucrose Stearate", "values": [
      {"measurement": "germ-kill efficacy (in words)", "setting": "incubated saliva", "value": "weak or non"},
      {"measurement": "MIC (ppm)", "setting": "incubated saliva", "value": ">500", "unit": "ppm"}
    ]}
  ]
}
